“Also recorded” adds a separate entry of the source.
How the values were obtained:
[1] = test system: Mytilus galloprovincialis plantigrades; test: Anti-settlement bioassay with mussel plantigrades (effectiveness and mortality); assay type: in vivo; conditions: for Anti-settlement activity in screening (result in words): 250 and 50 μM, versus negative control, p < 0.05 Dunnett
Experimental: M. galloprovincialis juvenile (0.5 cm shell length approximately) aggregates were collected from mussel beds from the intertidal rocky shore, during low neap tides at Memória beach, Matosinhos, Portugal (41°13′59″N; 8°43′28″W), and immediately transported to the laboratory. M. galloprovincialis plantigrade post-larvae (0.5–2 mm) were screened among the small mussel aggregates in a binocular magnifier (Olympus SZX2-ILLT), gently washed with filtered seawater to remove organic debris and sand particles and isolated in a petri dish with filtered seawater immediately before the bioassays.
For the screening bioassay, competent M. galloprovincialis plantigrades (showing exploring behavior, ie, moving their foot searching for the appropriate substrate to settle) were selected and exposed to the series of sulfated compounds 1–13 at two concentrations (250 and 50 μM) in 24-well microplates for 15 h, at 18 ± 1 °C, in the darkness. Bioassays time frame was selected based on preliminary bioassays to ensure that the response measured is reflecting the compounds effect. Test solutions were prepared in filtered seawater (previously treated by UV light, and carbon filters and mechanically filtered with […] filter before use) and obtained by dilution of the compounds stock solutions (50 mM) in ultra-pure water. Four well replicates were used per condition with five plantigrades per well and 2.5 mL of test solution. A negative control, with ultra-pure water was included in all bioassays, as well as a positive control with 5 μM CuSO4 (a potent AF agent). At the end of the exposure period, the anti-settlement activity was determined by the presence/absence of byssal threads produced by each individual efficiently attached for all the conditions tested.
Data from the anti-settlement and antibacterial screenings were analyzed using a one-way analysis of variance (ANOVA) followed by a Dunnett test against the control (p < 0.05). Semi-maximum response concentration that inhibited 50% larval settlement (EC50), semi-maximum response concentration that inhibited 20% bacterial growth (EC20) and the median lethal dose (LC50) for each bioactive compound were assessed using Probit regression analysis. Pearson Goodness-of-fit (Chi-Square) significance was considered at p < 0.05 for all analyses, and 95% lower and upper confidence limits [95% LCL; UCL] were presented. Therapeutic ratio (LC50/EC50) was used to evaluate the effectiveness vs toxicity of compounds[31][53][54]. The software IBM SPSS Statistics 21 was used for statistical analysis.

[2] = test system: Vibrio fischeri (NRRL-B-11177); test: Luminescent Vibrio fischeri ecotoxicity assay (ISO11348); assay type: cell-based; conditions: V. fischeri luminescence, 30 min contact
Experimental: After 5, 15 and 30 min of exposure, the light emitted as a by-product of Vibrio fischeri cellular respiration was measured at 490 nm. Any inhibition of cellular activity results in a decreased rate of respiration and a corresponding decrease in the rate of luminescence. The decrease of bacterial luminescence measured after 5, 15 or 30 min of exposition was used as test endpoint. Luminescence was measured using a LUMIStox photometer from DR LANGE, after a contact time of 15 min and 30 min at 15 ± 1 °C, taking into account a correction factor, fk, which is a measure of intensity change of control samples during the exposure time.
The pH of all samples was within the interval 6.0–8.5.

## C[C@@H]1O[C@@H](OC[C@H]2O[C@@H](Oc3c(-c4ccc(OCCOS(=O)(=O)O)c(OCCOS(=O)(=O)O)c4)oc4cc(OCCOS(=O)(=O)O)cc(O)c4c3=O)[C@H](OS(=O)(=O)O)[C@@H](OS(=O)(=O)O)[C@@H]2OS(=O)(=O)O)[C@H](OS(=O)(=O)O)[C@H](OS(=O)(=O)O)[C@H]1OS(=O)(=O)O [Compound 3, 3″,4″-bis(2-sulfateethoxy)-7-(2-sulfateethoxy)-rutin 2″,2″′,3′,3″′,4′,4″′,7-sulfate]
[1]; 15 h
  Anti-settlement activity in screening (result in words): did not show notable activity

## O=c1c2ccc(OCc3cn([C@@H]4O[C@H](COS(=O)(=O)O)[C@H](OS(=O)(=O)O)[C@H](OS(=O)(=O)O)[C@H]4OS(=O)(=O)O)nn3)cc2oc2cc(OCc3cn([C@@H]4O[C@H](COS(=O)(=O)O)[C@H](OS(=O)(=O)O)[C@H](OS(=O)(=O)O)[C@H]4OS(=O)(=O)O)nn3)ccc12 [Compound 7, 3,6-bis(1-(1-(β-D-galatopyranosyl)-1H-1,2,3-triazole-4-yl)methoxy)xanthone persulfate]
[1]; 15 h
  Anti-settlement activity in screening (result in words): not active

## O=C(/C=C/c1ccc(OS(=O)(=O)O)c(OS(=O)(=O)O)c1)O[C@@H]1C[C@](OS(=O)(=O)O)(C(=O)O)C[C@@H](OS(=O)(=O)O)[C@H]1OS(=O)(=O)O [Compound 13, chlorogenic acid persulfate]
[1]; 15 h
  Anti-settlement activity in screening (result in words): much less potent than compound 12

## C[C@@H]1O[C@@H](OC[C@H]2O[C@@H](Oc3c(-c4ccc(O)c(O)c4)oc4cc(O)cc(O)c4c3=O)[C@H](O)[C@@H](O)[C@@H]2O)[C@H](O)[C@H](O)[C@H]1O [Compound 14, rutin, reference compound]
[1]; 15 h
  Anti-settlement activity in screening (result in words): did not show significant anti-settlement activity; also recorded: not active

## O=C(O)c1cc(O)c(O)c(O)c1 [Compound 15, gallic acid, reference compound]
[1]; 15 h
  Anti-settlement activity in screening (result in words): did not show significant anti-settlement activity; also recorded: not active

## N#Cc1c(-c2ccc(Cl)cc2)[nH]c(C(F)(F)F)c1Br [ECONEA®]
[1]; all tested concentrations up to 500 μM
  Mortality/toxicity to target species plantigrades: showed some toxicity at the higher concentrations tested
[1]; mortality of plantigrades, 15 h, up to 500 μM, read-out: LC50, the median lethal dose
  LC50: 108 µM
[1]; plantigrades, 15 h, 18 °C
  EC50, minimum concentration that inhibited 50% of larval settlement: 1.40 µg/mL
[1]; plantigrades, 15 h, 18 °C, 1.56–500 μM, read-out: EC50, minimum concentration that inhibited 50% of larval settlement
  EC50: 4.01 µM

## [K+].[K+].[O]=[Cr](=[O])([O-])[O][Cr](=[O])(=[O])[O-] [K2Cr2O7, Potassium dichromate, reference compound]
[2]
  EC50 30min: 5.67 µg/mL
  EC80 30min: 16.73 µg/mL

Reference: paper PMC5304334, “Antifouling potential of Nature-inspired sulfated compounds” (Scientific Reports, 2017)
